Format in all cases: cell-based
The test system of assay [1] is Enterococcus faecium ATCC 700221 (VRE). Briefly: Broth microdilution MIC, E. faecium ATCC 700221 (VRE). The following applies: Enterococcus faecium; broth microdilution, 37° C., 20 hours; read-out: MIC E. faecium ATCC 700221 (VRE). The method in brief: (§1)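 Two-fold dilutions from 64 to 0.0625 μg/ml final, 1% DMSO, were inoculated at ~5.0×10^5 cfu/ml in the strain's test medium and kept 20 h at 37 °C in ambient atmosphere. Colonies were grown on MHA, with S. pneumoniae on blood agar under 5% CO2.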

In assay [2] the test system is Bacillus subtilis ATCC 6633. Briefly: Broth microdilution MIC, B. subtilis ATCC 6633. Conditions: ATCC6633, broth microdilution, 37° C., 20 hours, read-out: MIC B. subtilis ATCC 6633. The method in brief:
as §1
Background: Broth dilution looks for growth in wells or tubes with falling amounts of substance.

The subject of assay [3] is Escherichia coli ATCC 25922. Briefly: Broth microdilution MIC, E. coli ATCC 25922 (MHIIB w & w/o 4 mM EDTA). Conditions: broth microdilution, 37° C., 20 hours; for MIC: Escherichia coli, ATCC25922, without EDTA, read-out: MIC E. coli ATCC 25922; for MIC E. coli ATCC 25922 + 4 mM EDTA: with 4 mM EDTA. The method in brief:
as §1

Assay [4] has as its system Staphylococcus aureus ATCC 29213 (MSSA). Kind of assay: Broth microdilution MIC, S. aureus ATCC 29213 (MSSA). The following applies: broth microdilution, 37° C., 20 hours, read-out: MIC S. aureus ATCC 29213 (MSSA). The method in brief:
as §1

Assay [5] relates to Streptococcus pneumoniae ATCC 49619. Kind of assay: Broth microdilution MIC, S. pneumoniae ATCC 49619. The following applies: ATCC49619, broth microdilution, 37° C., 20 hours, read-out: MIC S. pneumoniae ATCC 49619. The method in brief:
as §1

Assay [6] concerns Enterococcus faecalis ATCC 29212. Briefly: Broth microdilution MIC, E. faecalis ATCC 29212. The following applies: ATCC29212, broth microdilution, 37° C., 20 hours, read-out: MIC E. faecalis ATCC 29212. The method in brief: as §1
Assay [7] has as its system Staphylococcus aureus NRS384 (MRSA). Kind of assay: Broth microdilution MIC, S. aureus NRS384 (MRSA). Conditions: Staphylococcus aureus; broth microdilution, 37° C., 20 hours; read-out: MIC NRS 384 (MRSA). The method in brief:
as §1

In brackets after ≈: the same amount, converted by molar mass.

Regarding `Cl.Cl.O=c1[nH]c(NCc2ccc(Cl)c(Cl)c2)nc2cnn(C3CCN(CC4CCNCC4)CC3)c12` [Compound 247, 5-((3,4-dichlorobenzyl)amino)-1-(1-(piperidin-4-ylmethyl)piperidin-4-yl)-1H-pyrazolo[4,3-d]pyrimidin-7(6H)-one dihydrochloride], the MIC is 32 µg/mL in assay [1]; 8 µg/mL in assay [2]; over 64 µg/mL in assay [3]; 32 µg/mL in assay [4]; 8 µg/mL in assay [5]; 32 µg/mL in assay [6]. Moreover, the MIC in assay [7] worked out at 64 µg/mL. Further, the “MIC E. coli ATCC 25922 + 4 mM EDTA” value in assay [3] was 64 µg/mL.

As to `CC(C)(C)OC(=O)N1CCC(CN2CCC(n3ncc4nc(NCc5ccc(Cl)c(Cl)c5)[nH]c(=O)c43)CC2)CC1` [Compound 248, tert-Butyl 4-((4-(5-((3,4-dichlorobenzyl)amino)-7-oxo-6,7-dihydro-1H-pyrazolo[4,3-d]pyrimidin-1-yl)piperidin-1-yl)methyl)piperidine-1-carboxylate2,2,2-trifluoroacetate], the MIC in assay [1] was 4 µg/mL (≈ 6.77 µM); in assay [2] it was 4 µg/mL (≈ 6.77 µM); in assay [3], over 64 µg/mL; in assay [4], 16 µg/mL (≈ 27.1 µM); in assay [5], 8 µg/mL (≈ 13.5 µM); in assay [6] it was 4 µg/mL (≈ 6.77 µM). Also, in assay [7], the MIC was found to be 16 µg/mL (≈ 27.1 µM). Further, in assay [3], the “MIC E. coli ATCC 25922 + 4 mM EDTA” value was 8 µg/mL.

With `Cl.Cl.O=c1[nH]c(NCc2ccc(Cl)c(Cl)c2)nc2cnn(C3CCN(CC4CCCCN4)CC3)c12` (stereo not drawn) [Compound 249, 5-((3,4-dichlorobenzyl)amino)-1-(1-(piperidin-2-ylmethyl)piperidin-4-yl)-1H-pyrazolo[4,3-d]pyrimidin-7(6H)-one dihydrochloride], the MIC in assay [1] was 8 µg/mL; in assay [2], 4 µg/mL; in assay [3], over 64 µg/mL; in assay [4], 16 µg/mL; in assay [5], 4 µg/mL; in assay [6], 16 µg/mL. In assay [7], the MIC stood at 16 µg/mL. The “MIC E. coli ATCC 25922 + 4 mM EDTA” value in assay [3] is 64 µg/mL.

Take `CC(C)(C)OC(=O)N1CCCC(CN2CCC(n3ncc4nc(NCc5ccc(Cl)c(Cl)c5)[nH]c(=O)c43)CC2)C1.Cl` (stereo not drawn) [Compound 250]: the MIC in assay [1] was 4 µg/mL; in assay [2] it was 4 µg/mL; in assay [3], over 64 µg/mL; in assay [4], over 64 µg/mL; in assay [5], 8 µg/mL; in assay [6] it was over 64 µg/mL. In addition, the MIC in assay [7] was over 64 µg/mL. In addition, the “MIC E. coli ATCC 25922 + 4 mM EDTA” value in assay [3] is over 64 µg/mL.

In the case of `Cl.Cl.O=c1[nH]c(NCc2ccc(Cl)c(Cl)c2)nc2cnn(C3CCN(CC4CCCNC4)CC3)c12` (stereo not drawn) [Compound 251, 5-((3,4-dichlorobenzyl)amino)-1-(1-(piperidin-3-ylmethyl)piperidin-4-yl)-1H-pyrazolo[4,3-d]pyrimidin-7(6H)-one dihydrochloride], the MIC in assay [1] was 16 µg/mL; in assay [2], 4 µg/mL; in assay [3], over 64 µg/mL; in assay [4] it was 16 µg/mL; in assay [5], 8 µg/mL; in assay [6] it was 16 µg/mL. Moreover, in assay [7], the MIC came out at 16 µg/mL. In assay [3], the “MIC E. coli ATCC 25922 + 4 mM EDTA” value came out at 64 µg/mL.

For the compound `Cl.O=C(c1ccncc1)N1CCC(n2ncc3nc(NCc4ccc(Cl)c(Cl)c4)[nH]c(=O)c32)CC1` [Compound 252, 5-((3,4-dichlorobenzyl)amino)-1-(1-isonicotinoylpiperidin-4-yl)-1H-pyrazolo[4,3-d]pyrimidin-7(6H)-one hydrochloride], the MIC in assay [1] was 2 µg/mL; in assay [2], 1 µg/mL; in assay [3], over 64 µg/mL; in assay [4], 4 µg/mL; in assay [5], 2 µg/mL; in assay [6], 4 µg/mL. Moreover, the MIC in assay [7] is 4 µg/mL. The “MIC E. coli ATCC 25922 + 4 mM EDTA” value in assay [3] was over 64 µg/mL.

On to `O=C(c1cocn1)N1CCC(n2ncc3nc(NCc4ccc(Cl)c(Cl)c4)[nH]c(=O)c32)CC1` [Compound 253, 5-[(3,4-Dichlorophenyl)methylamino]-1-[1-(oxazole-4-carbonyl)-4-piperidyl]-6H-pyrazolo[4,3-d]pyrimidin-7-one], for which the MIC in assay [1] is 2 µg/mL (≈ 4.1 µM); in assay [2] it was 1 µg/mL (≈ 2.05 µM); in assay [3], over 64 µg/mL; in assay [4], 2 µg/mL (≈ 4.1 µM); in assay [5], 2 µg/mL (≈ 4.1 µM); in assay [6], 4 µg/mL (≈ 8.19 µM). In assay [7], the MIC worked out at 2 µg/mL (≈ 4.1 µM). Also, the “MIC E. coli ATCC 25922 + 4 mM EDTA” value in assay [3] was over 64 µg/mL.

Regarding `O=C(c1nccs1)N1CCC(n2ncc3nc(NCc4ccc(Cl)c(Cl)c4)[nH]c(=O)c32)CC1` [Compound 254, 5-[(3,4-Dichlorophenyl)methylamino]-1-[1-(thiazole-2-carbonyl)-4-piperidyl]-6H-pyrazolo[4,3-d]pyrimidin-7-one], the MIC in assay [1] is 2 µg/mL (≈ 3.97 µM); in assay [2], 1 µg/mL (≈ 1.98 µM); in assay [3], over 64 µg/mL; in assay [4], 2 µg/mL (≈ 3.97 µM); in assay [5], 4 µg/mL (≈ 7.93 µM); in assay [6] it was 4 µg/mL (≈ 7.93 µM). The MIC in assay [7] is 2 µg/mL (≈ 3.97 µM). Besides, in assay [3], the “MIC E. coli ATCC 25922 + 4 mM EDTA” value is over 64 µg/mL.

Take `Cl.O=C(c1ccccn1)N1CCC(n2ncc3nc(NCc4ccc(Cl)c(Cl)c4)[nH]c(=O)c32)CC1` [Compound 255, 5-((3,4-Dichlorobenzyl)amino)-1-(1-picolinoylpiperidin-4-yl)-1H-pyrazolo[4,3-d]pyrimidin-7(6H)-one hydrochloride]: the MIC is 2 µg/mL in assay [1]; 2 µg/mL in assay [2]; over 64 µg/mL in assay [3]; 4 µg/mL in assay [4]; 2 µg/mL in assay [5]; 4 µg/mL in assay [6]. In addition, the MIC in assay [7] stood at 4 µg/mL. In addition, in assay [3], the “MIC E. coli ATCC 25922 + 4 mM EDTA” value is over 64 µg/mL.

Consider `Cl.O=C(c1cccnc1)N1CCC(n2ncc3nc(NCc4ccc(Cl)c(Cl)c4)[nH]c(=O)c32)CC1` [Compound 256, 5-((3,4-Dichlorobenzyl)amino)-1-(1-nicotinoylpiperidin-4-yl)-1H-pyrazolo[4,3-d]pyrimidin-7(6H)-one hydrochloride], for which the MIC in assay [1] is 2 µg/mL; in assay [2], 2 µg/mL; in assay [3], over 64 µg/mL; in assay [4], 8 µg/mL; in assay [5] it was 4 µg/mL; in assay [6], 4 µg/mL. Further, the MIC in assay [7] is 4 µg/mL. For the same compound, in assay [3], the “MIC E. coli ATCC 25922 + 4 mM EDTA” value was over 64 µg/mL.

On to `Cl.O=C(c1ccccn1)N1CCC(n2ncc3nc(NCc4ccc(Cl)c(Cl)c4)[nH]c(=O)c32)C1` (stereo not drawn) [Compound 257, 5-((3,4-Dichlorobenzyl)amino)-1-(1-picolinoylpyrrolidin-3-yl)-1H-pyrazolo[4,3-d]pyrimidin-7(6H)-one], for which the MIC is 4 µg/mL in assay [1]; 2 µg/mL in assay [2]; over 64 µg/mL in assay [3]; 4 µg/mL in assay [4]; 4 µg/mL in assay [5]; 8 µg/mL in assay [6]. Besides, the minimum inhibitory concentration (MIC) in assay [7] came to 4 µg/mL. For the same compound, the “MIC E. coli ATCC 25922 + 4 mM EDTA” value in assay [3] was over 64 µg/mL.

On to `Cl.O=C(c1cccnc1)N1CCC(n2ncc3nc(NCc4ccc(Cl)c(Cl)c4)[nH]c(=O)c32)C1` (stereo not drawn) [Compound 258, 5-((3,4-Dichlorobenzyl)amino)-1-(1-nicotinoylpyrrolidin-3-yl)-1H-pyrazolo[4,3-d]pyrimidin-7(6H)-one], for which the MIC in assay [1] is 4 µg/mL; in assay [2] it was 2 µg/mL; in assay [3] it was over 64 µg/mL; in assay [4], 8 µg/mL; in assay [5] it was 4 µg/mL; in assay [6], 8 µg/mL. The MIC in assay [7] came to 8 µg/mL. Besides, in assay [3], the “MIC E. coli ATCC 25922 + 4 mM EDTA” value is over 64 µg/mL.

One may read the MIC as the lowest concentration found to suppress growth.

The values above are taken from patent publication US10723741B1, “DNA polymerase IIIC inhibitors and use thereof” (Acurx Pharmaceuticals, LLC, priority 2018, dated 2020).
